Measurements reported in US10611847B2, “ABCG2 monoclonal antibody and uses thereof” (PEKING UNIVERSITY, priority 2016, dated 2020).

Experiments:
Format in all cases: cell-based
[1] = tested on: MCF 7/Flavo (Over-expressing ABCG2); assay: Drug sensitization test (MTT); conditions: 72 hours
Text: (§1) MCF7 Flavo-resistant strain and A549 cisplatin-resistant strain (A549/cis) were used as the experimental cell line with high ABCG2 expression, and the corresponding non-resistant cells MCF7 and A549 with relatively low ABCG2 expression were used as control cell lines in the drug sensitization test. FTC is a specific inhibitor of ABCG2, so the cell group added with FTC was used as a positive control group; the cell group added with a corresponding volume of DMEM high glucose medium or RPMI-1640 medium was used as a negative control group. […] The ABCG2-PKU1, ABCG2-PKU1-1 and ABCG2-PKU2 antibodies prepared in Example 3, as well as mitoxantrone (MTX) and FTC were added. After 72 hours, MTT test was carried out and the absorbance was measured. […] The ratio of the IC50 of the drug-resistant cells to the IC50 of the original cells was calculated, which was the relative drug resistance. Breast cancer cell MCF7 and Flavopiridol (Flavo)-resistant strain MCF7/Flavo cells, lung cancer A549 cells and cisplatin (Cis)-resistant strain A549/Cis cells were divided into 11 groups in the growth inhibition analysis: […]

MCF 7 = assay: Drug sensitization test (MTT); conditions: 72 hours
Text: as §1

A549 = assay: Drug sensitization test (MTT); conditions: 72 hours
Text: as §1

[2] = tested on: A549/cis (Over-expressing ABCG2); assay: Drug sensitization test (MTT); conditions: 72 hours
Text: as §1

[3] = tested on: MCF7, MCF7/ADM, MCF7/FLV1000, MCF7/Mitoxantrone, A549, A549/cis, L02 and L02/Oct4 cells; assay: Tumor cell growth inhibition analysis; conditions: agent alone; d1-d6 (FIG. 8)
Protocol: (1) Tumor cell MCF7 and the drug-resistant strains MCF7/ADM, MCF7/FLV1000, MCF7/Mitoxantrone obtained and identified in Example 4, A549 and A549/cis, L02 and L02/Oct4 cells were seeded in a 96-well plate, 3000 cells/90 μl/well, 6 replicate wells, incubated at 37° C. overnight.
(2) According to the following Tables 6-1 and 6-2, mitoxantrone, commercial ABCG2 antibody (BXP-21) and the three ABCG2 antibodies ABCG2-PKU1, ABCG2-PKU1-1 and ABCG2-PKU2 obtained in Example 3 were added to the plate. The plate was then incubated in a, 5% CO2 incubator at 37° C. 10 μl of DMSO was added to the well at d1, d2, d3, d4, d5, and d6, and the absorbance was measured using an ELISA instrument after 2 hours.
(3) Inhibitory rate calculation: OD value of drug-treatment—blank OD value/OD value without drug-treatment—blank OD value, a growth inhibition curve was plotted.

Row | SMILES | Relative Drug Resistance ([1]; mitoxantrone + agent at 5 μM) | Relative Drug Resistance (MCF 7; mitoxantrone + agent at 5 μM) | Relative Drug Resistance (A549; mitoxantrone + agent at 5 μM) | Relative Drug Resistance ([2]; mitoxantrone + agent at 5 μM) | Relative Drug Resistance ([1]; mitoxantrone alone) | Relative Drug Resistance (MCF 7; mitoxantrone alone) | Relative Drug Resistance (A549; mitoxantrone alone) | Relative Drug Resistance ([2]; mitoxantrone alone) | inhibition of tumor cell growth [3]
1 | COc1ccc2c3c([nH]c2c1)[C@H](C=C(C)C)N1C(=O)[C@@H]2CCCN2C(=O)[C@@H]1C3 [FTC] | 0.77 | 1.03 | 1.13 | 0.92 |  |  |  |  | 
2 | O=C1c2c(O)ccc(O)c2C(=O)c2c(NCCNCCO)ccc(NCCNCCO)c21 [Mitoxantrone, mitoxantrone] |  |  |  |  | 1.00 | 1.00 | 1.00 | 1.00 | could inhibit the growth
